Test results from article PMC6271731, “Multitarget Molecular Hybrids of Cinnamic Acids” (Molecules, 2014).
Read-outs that look alike come from different tables or passages of the source. Marks after values point to notes of the source that are not given here.

How the values were obtained:
[1] = Inhibition of linoleic acid lipid peroxidation (AAPH); conditions: % inhibition at 100 μM; pH 7.4, 37 °C
Description: Production of conjugated diene hydroperoxide by oxidation of sodium linoleate in an aqueous dispersion is monitored at 234 nm. AAPH is used as a free radical initiator [12, 24]. Ten microlitres of the 16 mM sodium linoleate solution was added to the UV cuvette containing 930 μL of 0.05 M phosphate buffer, pH 7.4 prethermostated at 37 °C. The oxidation reaction was initiated at 37 °C under air by the addition of 40 mM AAPH solution (50 μL). Ten μL of the tested compounds were added in the mixture. Lipid oxidation was measured in the presence of the same level of DMSO. The rate of oxidation at 37 °C was monitored by recording the increase in absorption at 234 nm caused by conjugated diene hydroperoxides. The results were compared to the appropriate standard inhibitor trolox (63%) (Table 1).

[2] = target: T1, pancreatic bovine trypsin (Bos taurus, UniProt P00760); assay: Inhibition of trypsin induced proteolysis in vitro; format: biochemical; conditions: for IC50: read-out: IC50 μM Trypsin Inh.; for inhibition at 100 µM: read-out: % Trypsin Inh.; for inhibition at 100 µM / % Trypsin Inh.: % inhibition at 100 μM
T1 construct: purchased Sigma Chemical, Co. (St. Louis, MO, USA)
T1 sequence (P00760 24-246): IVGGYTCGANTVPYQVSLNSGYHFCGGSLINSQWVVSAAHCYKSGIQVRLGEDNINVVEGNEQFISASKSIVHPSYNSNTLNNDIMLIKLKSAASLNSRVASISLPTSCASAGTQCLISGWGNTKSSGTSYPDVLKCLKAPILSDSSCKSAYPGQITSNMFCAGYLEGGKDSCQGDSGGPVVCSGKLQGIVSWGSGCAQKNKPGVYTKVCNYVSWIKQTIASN
Text: All chemicals, solvents, chemical and biochemical reagents were of analytical grade and purchased from commercial sources (Merck, Merck KGaA, Darmstadt, Germany, Fluka Sigma-Aldrich Laborchemikalien GmbH, Hannover, Germany, Alfa Aesar, Karlsruhe, Germany and Sigma, St. Louis, MO, USA). Soybean lipoxygenase, pancreatic bovine trypsin, sodium linoleate, free radical DPPH and 2,2-azinobis-2-methyl-propanimidamine HCl (AAPH) were obtained from Sigma Chemical, Co. (St. Louis, MO, USA), carrageenin, type K, was commercially available. All starting materials were obtained from commercial sources and used without further purification.
The test was carried out according to a modified Kunitz method. Bovine albumin was used as substrate for trypsin. The reaction mixture consisted of 0.075 mg/mL trypsin (200 μL) and 780 μL of phosphate buffer pH 7.6 (including the tested compounds (20 μL in DMSO, final concentration 100 μM) preincubated at 37 °C for 20 min and then 1 mL of albumin (stock solution 6 g/100 mL in phosphate buffer 0.1 M, pH 7.6) was added and incubated at 37 °C for 30 min. After the incubation 1 mL of 5% trichloroacetic acid was added to the incubated solution to stop the enzyme’s reaction and allowed to set at room temperature for 1 h. Then the solution was filtered by filter paper and the absorption of the filtered solution was measured at 280 nm. Salicylic acid was used as a reference compound (Table 1).

[3] = Lipophilicity as RM values by RP-TLC; format: physicochemical; conditions: methanol/water 70/30, 24 °C, average of at least five measurements
Text: Since lipophilicity is a significant physicochemical property determining distribution, bioavailability, metabolic activity and elimination, we tried to determine experimentally the lipophilicity of the new substances by a RPTLC method as RM values (Table 1) and to compare them with the corresponding theoretically calculated clog p values in n-octanol-buffer. This is considered to be a reliable, fast and convenient method for expressing lipophilicity. Lipophilicity (Table 2), was theoretically calculated as Clog p values in n-octanol-buffer by the CLOGP Programme of Biobyte Corp..
Reversed phase TLC (RP-TLC) was performed on silica gel plates impregnated with 5% (v/v) liquid paraffin in light petroleum ether. The mobile phase was a methanol/water mixture (70/30, v/v). The plates were developed in closed chromatography tanks saturated with the mobile phase at 24 °C. Spots were detected under UV light. RM values were determined from the corresponding Rf values (from five individual measurements) using the equation RM = log [(1/Rf) − 1] (Table 1).

soybean lipoxygenase = target: T2, soybean lipoxygenase (Glycine max, UniProt P08170); assay: Soybean lipoxygenase inhibition in vitro; format: biochemical; conditions: for inhibition at 100 µM: read-out: % LOX Inh.
T2 construct: purchased Sigma Chemical, Co. (St. Louis, MO, USA)
T2 sequence (P08170 1-839): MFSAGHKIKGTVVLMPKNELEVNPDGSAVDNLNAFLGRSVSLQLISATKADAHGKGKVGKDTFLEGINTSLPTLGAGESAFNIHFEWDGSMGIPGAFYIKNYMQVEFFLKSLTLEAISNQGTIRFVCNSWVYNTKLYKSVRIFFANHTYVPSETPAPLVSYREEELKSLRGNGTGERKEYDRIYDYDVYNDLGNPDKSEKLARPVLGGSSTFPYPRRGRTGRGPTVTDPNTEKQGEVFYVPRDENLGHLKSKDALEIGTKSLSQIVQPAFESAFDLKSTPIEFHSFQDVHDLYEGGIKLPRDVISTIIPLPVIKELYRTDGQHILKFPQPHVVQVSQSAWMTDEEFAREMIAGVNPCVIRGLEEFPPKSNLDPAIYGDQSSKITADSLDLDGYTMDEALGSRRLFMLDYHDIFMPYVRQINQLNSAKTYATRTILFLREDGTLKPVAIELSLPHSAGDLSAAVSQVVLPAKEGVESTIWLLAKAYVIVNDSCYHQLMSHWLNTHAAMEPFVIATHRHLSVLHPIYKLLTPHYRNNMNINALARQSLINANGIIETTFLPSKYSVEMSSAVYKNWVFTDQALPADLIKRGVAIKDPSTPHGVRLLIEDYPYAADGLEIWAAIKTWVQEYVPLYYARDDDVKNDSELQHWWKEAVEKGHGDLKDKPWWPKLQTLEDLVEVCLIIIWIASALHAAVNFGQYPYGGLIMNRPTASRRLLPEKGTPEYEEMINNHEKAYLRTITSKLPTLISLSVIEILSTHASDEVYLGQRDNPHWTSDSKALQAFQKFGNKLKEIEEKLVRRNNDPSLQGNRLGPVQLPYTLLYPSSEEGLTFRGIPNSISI
Description: DMSO solution of the tested compound was incubated with sodium linoleate (0.1 mM) and 0.2 mL of soybean lipoxygenase solution (1/9 × 10^−4 w/v in saline) in buffer pH 9 (tris) and at room temperature. […] The results are given in Table 1 expressed as IC50 values or % inhibition at 100 μM.

[4] = test system: acetic acid-induced writhing; assay: Antinociceptive screen (writhing test); format: in vivo, Wistar rats; conditions: i.p. 30 min before 0.6% acetic acid, writhes counted over 30 min; for inhibition in vivo at 0.01 mmol/0.1 kg: Rattus norvegicus, ip, 0.5 h, read-out: % ANA (in vivo analgesic-antinociceptive activity)
Description: Anti-inflammatory tests were conducted on Fisher-344 inbred rats of ca. 200 g body weight whereas antinociception and motor and sensory functions after sciatic nerve crash were performed on Wistar rats. Both sexes were used. Females pregnant were excluded. Each group was composed of 6 animals. The animals, which have been bred in our laboratory, were housed under standard conditions and received a diet of commercial food pellets and water ad libitum during the maintenance. Our studies were carried out in accordance with recognised guidelines on animal experimentation.
[…] Controls received the liquid vehicle only. All the in vivo experiments were repeated at least in triplicate and were subjected to statistic analysis using the student’s t-test.
The writhing reflex was used. The test compounds were administered i.p. 30 min prior to the i.p. administration of 1 mL/100 g body weight of 0.6% acetic acid. […] After 5 min, the number of stretches characterized by repeated contractions of the abdominal musculature accompanied by extension of the hind limbs was counted every 5 min for the next 30 min. […] The % antinociceptive activity (a:a) was calculated as: % a:a = (n − n'/n) × 100 (a: a analgesic activity, n average number of writhes of control group, n' average number in the test group).

[5] = bovine albumin substrate, pH 7.6, 37 °C
[6] = sodium linoleate 0.1 mM, tris buffer pH 9, room temperature
[7] = sodium linoleate 0.1 mM, tris buffer pH 9, room temperature, read-out: IC50 μM LOX Inh.

O=c1ccc2ccc(O)cc2o1 [Compound 7-HC, 7-hydroxycoumarin, reference compound]
AAPH % (% inhibition of lipid peroxidation) [1]: 92%
IC50 [2, 5]: 100 µM

Cc1cc(=O)oc2cc(OC(=O)/C=C/c3cccc(Oc4ccccc4)c3)ccc12 [Compound 2d, (E)-4-Methyl-2-oxo-2H-chromen-7-yl 3-(3-phenoxyphenyl)acrylate]
RM (±S.D.) [3]: 0.558 ± 0.040
AAPH % (% inhibition of lipid peroxidation) [1]: 97%
IC50 (soybean lipoxygenase): 74 µM
IC50 [2, 5]: 10 µM
inhibition in vivo at 0.01 mmol/0.1 kg [4]: 66%

CCOC(=O)c1ccc(N)cc1 [Benzocaine, reference compound]
AAPH % (% inhibition of lipid peroxidation) [1]: 25%
inhibition at 100 µM [2]: 28%

CC(=O)Nc1ccc(OC(=O)/C=C/c2ccc(OCc3ccc(Br)cc3)cc2)cc1 [Compound 3a, (E)-4-Acetamidophenyl 3-(4-((4-bromobenzyl)oxy)phenyl)acrylate]
RM (±S.D.) [3]: −0.24 ± 0.009
AAPH % (% inhibition of lipid peroxidation) [1]: 96%
IC50 (soybean lipoxygenase): 55 µM
IC50 [2, 5]: 100 µM
inhibition in vivo at 0.01 mmol/0.1 kg [4]: 52%

O=C(O)/C=C/c1ccccc1 [I]
RM (±S.D.) [3]: −0.485 ± 0.044
AAPH % (% inhibition of lipid peroxidation) [1]: 78%
IC50 (soybean lipoxygenase): 56 µM
IC50 [2, 5]: 55 µM
inhibition in vivo at 0.01 mmol/0.1 kg [4]: 60.2%

Cc1cc(=O)oc2cc(O)ccc12 [Hymechromone, 4-methyl-7-hydroxycoumarin, reference compound]
AAPH % (% inhibition of lipid peroxidation) [1]: 93%
inhibition at 100 µM [2]: 60%

CC(=O)Nc1ccc(OC(=O)/C=C/c2cccs2)cc1 [Compound 4a, (E)-4-Acetamidophenyl 3-(thiophen-2-yl)acrylate]
RM (±S.D.) [3]: −0.826 ± 0.05
AAPH % (% inhibition of lipid peroxidation) [1]: 95%
inhibition at 100 µM (soybean lipoxygenase): 16%
IC50 μM LOX Inh. (soybean lipoxygenase; [6]): low or no activity
IC50 μM Trypsin Inh. [2, 5]: low or no activity

Nc1cccc(O)c1 [m-AP, m-aminophenol, reference compound]
AAPH % (% inhibition of lipid peroxidation) [1]: 95%
% Trypsin Inh. [2]: 90%

CC(=O)Nc1cccc(OC(=O)/C=C/c2cccc(Oc3ccccc3)c2)c1 [Compound 2e, 3-Acetamidophenyl (E)-3-(3-phenoxyphenyl)acrylate]
RM (±S.D.) [3]: 0.407 ± 0.015
AAPH % (% inhibition of lipid peroxidation) [1]: 60%
IC50 (soybean lipoxygenase; [7]): 0.34 µM
% ANA (in vivo analgesic-antinociceptive activity) ([4]; 0.01 mmol/0.1 kg): 98.1 ** %
inhibition in vivo at 0.01 mmol/0.1 kg [4]: 98.1%

O=c1ccc2ccccc2o1 [Coumarin, reference compound]
inhibition at 100 µM [2]: 13%

Cc1cc(=O)oc2cc(OC(=O)/C=C/c3ccc(OCc4ccc(Br)cc4)cc3)ccc12 [Compound 3b, (E)-4-Methyl-2-oxo-2H-chromen-7-yl-3-(4-((4-bromobenzyl)oxy)phenyl)acrylate]
RM (±S.D.) [3]: −0.602 ± 0.01
AAPH % (% inhibition of lipid peroxidation) [1]: 90%
IC50 (soybean lipoxygenase): 50 µM
IC50 [2, 5]: 5 µM

O=C(/C=C/c1cccc(Oc2ccccc2)c1)Oc1ccc2ccc(=O)oc2c1 [Compound 2c, (E)-2-Oxo-2H-chromen-7-yl 3-(3-phenoxyphenyl)acrylate]
RM (±S.D.) [3]: 0.444 ±0.008
AAPH % (% inhibition of lipid peroxidation) [1]: 93%
inhibition at 100 µM (soybean lipoxygenase): 20%
IC50 μM LOX Inh. (soybean lipoxygenase; [6]): low or no activity
IC50 [2, 5]: 10 µM
inhibition in vivo at 0.01 mmol/0.1 kg [4]: 70.4%

CCOC(=O)c1ccc(NC(=O)/C=C/c2cccc(Oc3ccccc3)c2)cc1 [Compound 2h, (E)-Ethyl 4-(3-(3-phenoxyphenyl)acrylamido)benzoate]
RM (±S.D.) [3]: 0.399 ± 0.045
AAPH % (% inhibition of lipid peroxidation) [1]: 64%
IC50 (soybean lipoxygenase): 100 µM
IC50 [2, 5]: 50 µM

Nc1ccc(O)cc1 [p-AP, p-aminophenol, reference compound]
AAPH % (% inhibition of lipid peroxidation) [1]: 99%
% Trypsin Inh. [2]: 87%

CC(=O)Nc1ccc(OC(=O)/C=C/c2ccccc2)cc1 [Compound 1a, (E) 4-Acetamidophenyl cinnamate]
RM (±S.D.) [3]: −0.725 ± 0.009
AAPH % (% inhibition of lipid peroxidation) [1]: 95%
IC50 (soybean lipoxygenase; [7]): 10 µM
inhibition at 100 µM [2]: 34%
inhibition in vivo at 0.01 mmol/0.1 kg [4]: 77.3%

O=C(/C=C/c1cccc(Oc2ccccc2)c1)Nc1cccc(OC(=O)/C=C/c2cccc(Oc3ccccc3)c2)c1 [Compound 2g]
RM (±S.D.) [3]: 1.092 ± 0.044
AAPH % (% inhibition of lipid peroxidation) [1]: 60%
IC50 (soybean lipoxygenase): 72 µM
IC50 [2, 5]: 43.6 µM

O=C(/C=C/c1cccc(Oc2ccccc2)c1)Nc1ccc(O)cc1 [Compound 2f, (E)-N-(4-Hydroxyphenyl)-3-(3-phenoxyphenyl)acrylamide]
RM (±S.D.) [3]: −0.116 ± 0.003
AAPH % (% inhibition of lipid peroxidation) [1]: 100%
IC50 μM LOX Inh. (soybean lipoxygenase; [6]): low or no activity
IC50 [2, 5]: 26 µM

Cc1c(C)c2c(c(C)c1O)CCC(C)(C(=O)O)O2 (stereo not shown) [Trolox, reference compound]
AAPH % (% inhibition of lipid peroxidation) [1]: 63%
